± gives the uncertainty stated by the source.
Legend:
[1] = xn = mol fraction of the nth substance listed
[2] = 101 kPa

ClC(Cl)(Cl)Cl + Cc1ccccc1
viscosity [mPa·s], [1], 101 kPa
Settings	293.15 K	298.15 K	303.15 K	313.15 K
x1 = 0.1022	0.6227 ± 0.017	0.5867 ± 0.016	0.5527 ± 0.015	0.4932 ± 0.013
x1 = 0.1977	0.6508 ± 0.017	0.6111 ± 0.016	0.5749 ± 0.015	0.5126 ± 0.014
x1 = 0.3029	0.6875 ± 0.018	0.6446 ± 0.017	0.606 ± 0.016	0.5394 ± 0.014
x1 = 0.4043	0.7215 ± 0.019	0.6753 ± 0.018	0.634 ± 0.017	0.5628 ± 0.015
x1 = 0.4982	0.7585 ± 0.02	0.712 ± 0.019	0.6656 ± 0.018	0.5897 ± 0.016
x1 = 0.5988	0.7983 ± 0.021	0.7461 ± 0.02	0.6988 ± 0.018	0.6181 ± 0.016
x1 = 0.7091	0.8428 ± 0.022	0.7861 ± 0.021	0.7353 ± 0.019	0.6485 ± 0.017
x1 = 0.8107	0.8905 ± 0.024	0.8298 ± 0.022	0.7755 ± 0.021	0.6831 ± 0.018
x1 = 0.916	0.9415 ± 0.025	0.88 ± 0.023	0.8249 ± 0.022	0.719 ± 0.019
x2 = 0.1	–	0.8643 ± 0.011	–	–
x2 = 0.2	–	0.8211 ± 0.01	–	–
x2 = 0.3	–	0.7802 ± 0.0098	–	–
x2 = 0.4	–	0.7415 ± 0.0094	–	–
x2 = 0.5	–	0.7049 ± 0.0089	–	–
x2 = 0.6	–	0.6705 ± 0.0085	–	–
x2 = 0.7	–	0.6381 ± 0.0081	–	–
x2 = 0.8	–	0.6078 ± 0.0077	–	–
x2 = 0.9	–	0.5794 ± 0.0074	–	–

CC(C)[O-].CC(C)[O-].CC(C)[O-].CC(C)[O-].[Ti+4] + CC(C)O
viscosity [mPa·s], [1], 101.3 kPa
Settings	x1 = 0.0502	x1 = 0.1236	x1 = 0.2408	x1 = 0.4582	x1 = 0.6555
293.15 K	2.274 ± 0.14	2.136 ± 0.13	2.072 ± 0.12	2.134 ± 0.13	2.287 ± 0.14
303.15 K	1.659 ± 0.1	1.526 ± 0.092	1.458 ± 0.088	1.535 ± 0.093	1.498 ± 0.091
313.15 K	1.274 ± 0.077	1.185 ± 0.072	1.133 ± 0.068	1.167 ± 0.07	1.123 ± 0.068
323.15 K	0.9981 ± 0.06	0.9549 ± 0.058	0.9172 ± 0.055	0.9361 ± 0.057	0.9108 ± 0.055

ClC(Cl)(Cl)Cl + CC(C)O
[1], 313.15 K, 101.33 kPa
Settings	viscosity [mPa·s]
x2 = 0.115	0.7291 ± 0.019
x2 = 0.22	0.7336 ± 0.019
x2 = 0.325	0.7548 ± 0.02
x2 = 0.421	0.7812 ± 0.02
x2 = 0.5	0.8175 ± 0.021
x2 = 0.602	0.8746 ± 0.023
x2 = 0.685	0.9355 ± 0.024
x2 = 0.745	0.9868 ± 0.026
x2 = 0.879	1.145 ± 0.03

CCN(CC)CC + Cc1ccc(C)cc1
[1], 303.15 K, 101 kPa
Settings	viscosity [mPa·s]
x1 = 0.0103	0.5611 ± 0.0049
x1 = 0.02055	0.5576 ± 0.0048
x1 = 0.03043	0.5525 ± 0.0048
x1 = 0.04261	0.5488 ± 0.0048
x1 = 0.05408	0.5433 ± 0.0048
x1 = 0.06646	0.5381 ± 0.0047
x1 = 0.07602	0.5342 ± 0.0047
x1 = 0.08463	0.5307 ± 0.0047
x1 = 0.09589	0.5253 ± 0.0047
x1 = 0.1075	0.5207 ± 0.0046

ClC(Cl)(Cl)Cl + CS(C)=O
[1]
Settings	viscosity [mPa·s]
298 K, 101.3 kPa, x1 = 0.1093	2.001 ± 0.025
298 K, 101.3 kPa, x1 = 0.226	1.852 ± 0.023
298 K, 101.3 kPa, x1 = 0.4246	1.654 ± 0.019
298 K, 101.3 kPa, x1 = 0.5746	1.5 ± 0.017
298 K, 101.3 kPa, x1 = 0.6402	1.399 ± 0.015
298 K, 101.3 kPa, x1 = 0.8661	1.067 ± 0.011
303.15 K, 101.33 kPa, x1 = 0.2642	1.553 ± 0.016
303.15 K, 101.33 kPa, x1 = 0.3011	1.526 ± 0.015
303.15 K, 101.33 kPa, x1 = 0.3924	1.483 ± 0.015
303.15 K, 101.33 kPa, x1 = 0.4763	1.391 ± 0.014
303.15 K, 101.33 kPa, x1 = 0.5118	1.358 ± 0.014
303.15 K, 101.33 kPa, x1 = 0.5664	1.304 ± 0.013
318 K, 101.3 kPa, x1 = 0.114	1.312 ± 0.045
318 K, 101.3 kPa, x1 = 0.2398	1.25 ± 0.043
318 K, 101.3 kPa, x1 = 0.424	1.139 ± 0.04
318 K, 101.3 kPa, x1 = 0.5763	1.035 ± 0.036
318 K, 101.3 kPa, x1 = 0.8096	0.8725 ± 0.031

ClC(Cl)(Cl)Cl + CCCCCCCCCCO
[1], 298.15 K, 101 kPa
Settings	viscosity [mPa·s]
x2 = 0.05	1.031 ± 0.027
x2 = 0.097	1.224 ± 0.032
x2 = 0.15	1.441 ± 0.038
x2 = 0.2	1.775 ± 0.046
x2 = 0.39	3.091 ± 0.08
x2 = 0.49	4.012 ± 0.1
x2 = 0.59	5.08 ± 0.13
x2 = 0.8	7.86 ± 0.2

CCCC[n+]1ccccc1.N#C[N-]C#N
[2]
Settings	viscosity [mPa·s]
293.15 K	41.05 ± 0.38
298.15 K	33.27 ± 0.31
303.15 K	27.62 ± 0.26
308.15 K	22.9 ± 0.21
313.15 K	19.3 ± 0.18
318.15 K	16.73 ± 0.16
323.15 K	14.44 ± 0.14

CC[N+](C)(CC)CCOC.F[B-](F)(F)F
[2]
Settings	viscosity [mPa·s]
293.15 K	228.1 ± 12
298.15 K	178.6 ± 7.9
303.15 K	140.4 ± 5.3
308.15 K	111.4 ± 3.5
313.15 K	89.27 ± 2.4
318.15 K	70.53 ± 1.6
323.15 K	57.55 ± 1.2

ClC(Cl)(Cl)Cl + COCCO
viscosity [mPa·s], [1], 100 kPa
Settings	x1 = 0.0831	x1 = 0.1694	x1 = 0.2591	x1 = 0.3523	x1 = 0.4494	x1 = 0.5504	x1 = 0.6557	x1 = 0.7655	x1 = 0.8802
298.15 K	1.569 ± 0.014	1.49 ± 0.014	1.412 ± 0.013	1.335 ± 0.012	1.26 ± 0.012	1.186 ± 0.011	1.114 ± 0.01	1.043 ± 0.0098	0.9736 ± 0.0092
303.15 K	1.392 ± 0.013	1.328 ± 0.012	1.265 ± 0.012	1.202 ± 0.011	1.171 ± 0.011	1.079 ± 0.01	1.019 ± 0.0096	0.9601 ± 0.0091	0.902 ± 0.0086
308.15 K	1.24 ± 0.011	1.188 ± 0.011	1.137 ± 0.011	1.111 ± 0.01	1.036 ± 0.0097	0.9853 ± 0.0093	0.9601 ± 0.0091	0.8863 ± 0.0084	0.8376 ± 0.008
313.15 K	1.108 ± 0.01	1.067 ± 0.01	1.025 ± 0.0096	0.9841 ± 0.0093	0.9429 ± 0.0089	0.9015 ± 0.0086	0.8608 ± 0.0082	0.8201 ± 0.0079	0.7796 ± 0.0075

NNC(=O)c1ccncc1 + O
viscosity [mPa·s], [1]
Settings	298.15 K	303.15 K	308.15 K	313.15 K
100 kPa, x1 = 0.00051	–	–	0.7216 ± 0.12	–
100 kPa, x1 = 0.000801	–	0.8033 ± 0.12	0.724 ± 0.12	–
100 kPa, x1 = 0.00109	0.9009 ± 0.12	0.8061 ± 0.12	0.7263 ± 0.12	0.6588 ± 0.12
100 kPa, x1 = 0.00153	0.9061 ± 0.12	0.8104 ± 0.12	0.7299 ± 0.12	0.6617 ± 0.12
101 kPa, x1 = 0.003	0.9182 ± 0.019	–	0.7383 ± 0.016	–

CCCCCCCCCCCCCC(=O)O + CC(C)[C@@H]1CC[C@@H](C)C[C@H]1O
[1], 100 kPa, x1 = 0.2
Settings	viscosity [mPa·s]
298.15 K	33.99 ± 0.37
303.15 K	24.78 ± 0.27
308.15 K	18.54 ± 0.2
313.15 K	14.21 ± 0.15
318.15 K	11.11 ± 0.12
323.15 K	8.85 ± 0.1

— the CheMixHub viscosity set
